In PubChem BioAssay (NCI):
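Each compound was tested at five concentrations against cells in 96-well plates for 48 hours. The concentration for 50% growth inhibition is given as GI50. TGI: concentration producing complete growth inhibition.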

Legend:
Experiment in all cases: NCI tumour cell line growth inhibition, 48 h
LOX IMVI melanoma = test system: LOX IMVI melanoma
T-47D breast = test system: T-47D breast
SN12C renal = test system: SN12C renal
SK-MEL-2 melanoma = test system: SK-MEL-2 melanoma
SNB-75 CNS = test system: SNB-75 CNS
HCT-15 colon = test system: HCT-15 colon
U251 CNS = test system: U251 CNS
NCI-H460 lung = test system: NCI-H460 lung
MOLT-4 leukemia = test system: MOLT-4 leukemia
SK-MEL-28 melanoma = test system: SK-MEL-28 melanoma
PC-3 prostate = test system: PC-3 prostate
KM12 colon = test system: KM12 colon
NCI-H522 lung = test system: NCI-H522 lung
HOP-92 NSCLC = test system: HOP-92 NSCLC
RPMI-8226 leukemia = test system: RPMI-8226 leukemia
DU-145 prostate = test system: DU-145 prostate
OVCAR-5 ovarian = test system: OVCAR-5 ovarian
HT29 colon = test system: HT29 colon
NCI-H226 lung = test system: NCI-H226 lung
CAKI-1 renal = test system: CAKI-1 renal
TK-10 renal = test system: TK-10 renal
786-0 renal = test system: 786-0 renal
M14 melanoma = test system: M14 melanoma
UACC-62 melanoma = test system: UACC-62 melanoma
BT-549 breast = test system: BT-549 breast
HL-60(TB) leukemia = test system: HL-60(TB) leukemia
SK-OV-3 ovarian = test system: SK-OV-3 ovarian
UO-31 renal = test system: UO-31 renal
MCF7 breast = test system: MCF7 breast
SW-620 colon = test system: SW-620 colon
SR leukemia = test system: SR leukemia
HCC-2998 colon = test system: HCC-2998 colon
IGROV1 ovarian = test system: IGROV1 ovarian
MDA-MB-435 = test system: MDA-MB-435
SK-MEL-5 melanoma = test system: SK-MEL-5 melanoma
SF-539 CNS = test system: SF-539 CNS
EKVX NSCLC = test system: EKVX NSCLC
SF-295 CNS = test system: SF-295 CNS
ACHN renal = test system: ACHN renal
UACC-257 melanoma = test system: UACC-257 melanoma
A498 renal = test system: A498 renal
HCT-116 colon = test system: HCT-116 colon
MALME-3M melanoma = test system: MALME-3M melanoma
K-562 leukemia = test system: K-562 leukemia
HS 578T breast = test system: HS 578T breast
MDA-MB-231 breast = test system: MDA-MB-231 breast
NCI-H23 lung = test system: NCI-H23 lung
RXF 393 renal = test system: RXF 393 renal
HOP-62 NSCLC = test system: HOP-62 NSCLC
OVCAR-4 ovarian = test system: OVCAR-4 ovarian
SF-268 CNS = test system: SF-268 CNS
OVCAR-3 ovarian = test system: OVCAR-3 ovarian
A549 NSCLC = test system: A549 NSCLC
OVCAR-8 ovarian = test system: OVCAR-8 ovarian
NCI/ADR-RES ovarian = test system: NCI/ADR-RES ovarian
CCRF-CEM leukemia = test system: CCRF-CEM leukemia
SNB-19 CNS = test system: SNB-19 CNS
COLO 205 colon = test system: COLO 205 colon

CN(C)c1cc2c(Nc3ccc4nc(Cc5ccccc5)[nH]c4c3)ncnc2cn1
GI50 (LOX IMVI melanoma): > 17.4 µM | TGI (LOX IMVI melanoma): > 25 µM | GI50 (T-47D breast): > 16.4 µM | TGI (T-47D breast): > 25 µM | GI50 (SN12C renal): > 16.1 µM | TGI (SN12C renal): > 25 µM | GI50 (SK-MEL-2 melanoma): > 16.3 µM | TGI (SK-MEL-2 melanoma): > 25 µM | GI50 (SNB-75 CNS): > 13.9 µM | TGI (SNB-75 CNS): > 25 µM | GI50 (HCT-15 colon): > 16.6 µM | TGI (HCT-15 colon): > 25 µM | GI50 (U251 CNS): > 17.5 µM | TGI (U251 CNS): > 25 µM | GI50 (NCI-H460 lung): 13.1 µM | TGI (NCI-H460 lung): > 25 µM | GI50 (MOLT-4 leukemia): > 25 µM | TGI (MOLT-4 leukemia): > 25 µM | GI50 (SK-MEL-28 melanoma): > 12.4 µM | TGI (SK-MEL-28 melanoma): > 20 µM | GI50 (PC-3 prostate): > 25 µM | TGI (PC-3 prostate): > 25 µM | GI50 (KM12 colon): 13.8 µM | TGI (KM12 colon): > 25 µM | GI50 (NCI-H522 lung): 10.9 µM | TGI (NCI-H522 lung): > 25 µM | GI50 (HOP-92 NSCLC): > 25 µM | TGI (HOP-92 NSCLC): > 25 µM | GI50 (RPMI-8226 leukemia): 11.4 µM | TGI (RPMI-8226 leukemia): > 25 µM | GI50 (DU-145 prostate): 12.1 µM | TGI (DU-145 prostate): > 25 µM | GI50 (OVCAR-5 ovarian): 16.6 µM | TGI (OVCAR-5 ovarian): > 25 µM | GI50 (HT29 colon): 11.9 µM | TGI (HT29 colon): > 23 µM | GI50 (NCI-H226 lung): > 18 µM | TGI (NCI-H226 lung): > 25 µM | GI50 (CAKI-1 renal): 9.82 µM | TGI (CAKI-1 renal): > 25 µM | GI50 (TK-10 renal): 4.9 µM | TGI (TK-10 renal): > 25 µM | GI50 (786-0 renal): 12.5 µM | TGI (786-0 renal): > 20.3 µM | GI50 (M14 melanoma): > 25 µM | TGI (M14 melanoma): > 25 µM | GI50 (UACC-62 melanoma): > 18.3 µM | TGI (UACC-62 melanoma): > 25 µM | GI50 (BT-549 breast): > 18.2 µM | TGI (BT-549 breast): > 25 µM | GI50 (HL-60(TB) leukemia): > 25 µM | TGI (HL-60(TB) leukemia): > 25 µM | GI50 (SK-OV-3 ovarian): 1850 nM | TGI (SK-OV-3 ovarian): > 25 µM | GI50 (UO-31 renal): 12.2 µM | TGI (UO-31 renal): > 25 µM | GI50 (MCF7 breast): > 15.3 µM | TGI (MCF7 breast): > 25 µM | GI50 (SW-620 colon): > 21.5 µM | TGI (SW-620 colon): > 25 µM | GI50 (SR leukemia): 8.79 µM | TGI (SR leukemia): > 25 µM | GI50 (HCC-2998 colon): > 25 µM | TGI (HCC-2998 colon): > 25 µM | GI50 (IGROV1 ovarian): 9.21 µM | TGI (IGROV1 ovarian): > 25 µM | GI50 (MDA-MB-435): > 20.9 µM | TGI (MDA-MB-435): > 25 µM | GI50 (SK-MEL-5 melanoma): 8.99 µM | TGI (SK-MEL-5 melanoma): > 16 µM | GI50 (SF-539 CNS): 14.4 µM | TGI (SF-539 CNS): > 25 µM | GI50 (EKVX NSCLC): 8.68 µM | TGI (EKVX NSCLC): > 25 µM | GI50 (SF-295 CNS): > 12.7 µM | TGI (SF-295 CNS): > 18.9 µM | GI50 (ACHN renal): 11.8 µM | TGI (ACHN renal): > 25 µM | GI50 (UACC-257 melanoma): > 15.3 µM | TGI (UACC-257 melanoma): > 25 µM | GI50 (A498 renal): > 13.9 µM | TGI (A498 renal): > 25 µM | GI50 (HCT-116 colon): 13.1 µM | TGI (HCT-116 colon): > 25 µM | GI50 (MALME-3M melanoma): > 16.3 µM | TGI (MALME-3M melanoma): > 25 µM | GI50 (K-562 leukemia): > 19.8 µM | TGI (K-562 leukemia): > 25 µM | GI50 (HS 578T breast): > 17.6 µM | TGI (HS 578T breast): > 25 µM | GI50 (MDA-MB-231 breast): > 17.4 µM | TGI (MDA-MB-231 breast): > 25 µM | GI50 (NCI-H23 lung): > 23.9 µM | TGI (NCI-H23 lung): > 25 µM | GI50 (RXF 393 renal): 12 µM | TGI (RXF 393 renal): > 25 µM | GI50 (HOP-62 NSCLC): > 15.6 µM | TGI (HOP-62 NSCLC): > 25 µM | GI50 (OVCAR-4 ovarian): > 20.4 µM | TGI (OVCAR-4 ovarian): > 25 µM | GI50 (SF-268 CNS): > 23.4 µM | TGI (SF-268 CNS): > 25 µM | GI50 (OVCAR-3 ovarian): > 18.3 µM | TGI (OVCAR-3 ovarian): > 25 µM | GI50 (A549 NSCLC): 11.8 µM | TGI (A549 NSCLC): > 25 µM | GI50 (OVCAR-8 ovarian): > 17.4 µM | TGI (OVCAR-8 ovarian): > 25 µM | GI50 (NCI/ADR-RES ovarian): > 25 µM | TGI (NCI/ADR-RES ovarian): > 25 µM | GI50 (CCRF-CEM leukemia): > 18.7 µM | TGI (CCRF-CEM leukemia): > 25 µM | GI50 (SNB-19 CNS): > 25 µM | TGI (SNB-19 CNS): > 25 µM | GI50 (COLO 205 colon): > 25 µM | TGI (COLO 205 colon): > 25 µM
